In patent US10792294B2, “Methods for enhancing mucosal innate immune responses to and/or detection of pathogens using human milk oligosaccharides” (ABBOTT LABORATORIES, priority 2014, dated 2020):

Key:
Assay type in all cases: cell-based, human
TLR3 = test: qRT-PCR RNA expression of TLR3 gene in LS174T cells exposed to HMO; settings: 48 hours; for fold change in RNA expression of TLR3 relative to Control: normalized to GUSB, P<0.05
Procedure: (§1) The ability of HMOs to increase expression of mucosal innate immune receptors and cytokines was tested by exposing LS174T human colorectal cancer cells, which are a model of human intestinal goblet cells, to either of the HMOs, 2′-FL or LNnT. The LS174T cells were obtained from the American Type Culture Collection (ATCC). LS174T cells were maintained in minimum essential medium supplemented with 10% Fetalplex, 1.5 g/L of Na2CO3, 10 ml/L penicillin G-streptomycin solution at 37° C. in 5% CO2. Cells were plated at 0.2×10^5 cells/ml/well in 24-well plates and allowed to attach for 24-30 hours. Solutions containing each HMO were prepared by resuspending lyophilized HMO in cell culture grade water to a 10% solution and filter-sterilizing before diluting to the appropriate level in culture media. A solution free of carbohydrates (i.e., fresh medium alone, Control) was also prepared using the same procedure. After preparation of the HMO-containing solutions, the LS174T cell cultures were rinsed with 1×HBSS and then incubated in 0.5 ml of fresh medium alone (Control) or containing 0.1 mg/mL or 1 mg/mL of 2′-FL (2FL), LNnT (LNnT), fucose (FUCOSE), or lactose (LAC) for 48 hours. Cells were harvested at the end of incubation with 1 ml of TRIzol to obtain RNA samples. RNA expression levels of the genes for the mucosal innate immune receptor proteins TLR3, TLR4, CCR2 and the cytokine IL1B were determined by quantitative reverse transcriptase polymerase chain reaction (qRT-PCR) of RNA samples from the cells. Fold change (Fold induction) in the RNA expression levels of the genes for the receptor proteins and the cytokine was normalized based on the change in GUSB transcript expression. Reported fold changes are the mean+/−[…]. Treatments with statistically significant differences in fold expression (P<0.05) are reported with different letters above the bars.

IL1B = test: qRT-PCR RNA expression of cytokine IL1B gene in LS174T cells exposed to HMO; settings: 1 mg/mL, 48 hours, normalized to GUSB, P<0.05
Procedure: The ability of HMOs to increase expression of mucosal innate immune receptors and cytokines was tested by exposing LS174T human colorectal cancer cells, which are a model of human intestinal goblet cells, to either of the HMOs, 2′-FL or LNnT. The LS174T cells were obtained from the American Type Culture Collection (ATCC). LS174T cells were maintained in minimum essential medium supplemented with 10% Fetalplex, 1.5 g/L of Na2CO3, 10 ml/L penicillin G-streptomycin solution at 37° C. in 5% CO2. Cells were plated at 0.2×10^5 cells/ml/well in 24-well plates and allowed to attach for 24-30 hours. Solutions containing each HMO were prepared by resuspending lyophilized HMO in cell culture grade water to a 10% solution and filter-sterilizing before diluting to the appropriate level in culture media. A solution free of carbohydrates (i.e., fresh medium alone, Control) was also prepared using the same procedure. […] RNA expression levels of the genes for the mucosal innate immune receptor proteins TLR3, TLR4, CCR2 and the cytokine IL1B were determined by quantitative reverse transcriptase polymerase chain reaction (qRT-PCR) of RNA samples from the cells. […]

TLR4 = test: qRT-PCR RNA expression of TLR4 gene in LS174T cells exposed to HMO; settings: 48 hours; for fold change in RNA expression of TLR4 relative to Control: normalized to GUSB, P<0.05
Procedure: as §1

CCR2 = test: qRT-PCR RNA expression of CCR2 gene in LS174T cells exposed to HMO; settings: 48 hours; for fold change in RNA expression of CCR2 relative to Control: normalized to GUSB, P<0.05
Procedure: as §1

MUC2 = test: qRT-PCR RNA expression of MUC2 gene in LS174T cells exposed to HMO; settings: 0.1 mg/mL, 48 hours

| Compound | increase in TLR3 expression, 0.1 mg/mL treatment compared with 1 mg/mL treatment (TLR3; 0.1 mg/mL vs 1 mg/mL) | fold change in RNA expression of TLR3 relative to Control (TLR3; 0.1 mg/mL) | fold change in RNA expression of TLR3 relative to Control (TLR3; 1 mg/mL) | fold change in RNA expression of IL1B relative to Control (IL1B) | increase in TLR4 expression, 0.1 mg/mL treatment compared with 1 mg/mL treatment (TLR4; 0.1 mg/mL vs 1 mg/mL) | fold change in RNA expression of TLR4 relative to Control (TLR4; 0.1 mg/mL) | fold change in RNA expression of TLR4 relative to Control (TLR4; 1 mg/mL) | increase in CCR2 expression, 0.1 mg/mL treatment compared with 1 mg/mL treatment (CCR2; 0.1 mg/mL vs 1 mg/mL) | fold change in RNA expression of CCR2 relative to Control (CCR2; 0.1 mg/mL) | fold change in RNA expression of CCR2 relative to Control (CCR2; 1 mg/mL) | MUC2 gene expression (MUC2) |
| --- | --- | --- | --- | --- | --- | --- | --- | --- | --- | --- | --- |
| 2′-fucosyllactose [2′-FL] | greater increase in expression in response to the 0.1 mg/mL 2′-FL treatment than the 1 mg/mL 2′-FL treatment | statistically significant fold change | statistically significant fold change | statistically significant fold change | greater increase in expression in response to the 0.1 mg/mL 2′-FL treatment than the 1 mg/mL 2′-FL treatment | statistically significant fold change | statistically significant fold change | greater increase in expression in response to the 0.1 mg/mL 2′-FL treatment than the 1 mg/mL 2′-FL treatment | statistically significant fold change | statistically significant fold change | significant increase |
| CC(=O)N[C@H]1[C@H](O[C@H]2[C@@H](O)[C@@H](CO)O[C@@H](O[C@H]3[C@H](O)[C@@H](O)C(O)O[C@@H]3CO)[C@@H]2O)O[C@H](CO)[C@@H](O[C@@H]2O[C@H](CO)[C@H](O)[C@H](O)[C@H]2O)[C@@H]1O (mixture of isomers) [LNnT, lacto-N-neotetraose] |  |  | significant change in expression | significant change in expression |  |  | significant change in expression |  | significantly enhanced | significant change in expression |  |
